# US20120172438A1, “GLYCYRRHETINIC ACID ESTER DERIVATIVE SYNTHESIS METHOD AND DEOXOGLYCYRRHETINIC ACID ESTER COMPOUND” (priority 2009, published 2012)
# Marks after values point to notes of the source that are not given here.
# Tests used:
# [1] = tested on: carrageenan-induced rat paw edema; test: Carrageenan-induced rat paw swelling; assay type: in vivo, male SD rats
# Description: Rat paw edema was induced by injecting carrageenan, and we observed the swelling to evaluate the anti-inflammatory effect. Wherein:
# • Animals: male SD rats, 150-180 g; • Inflammatory Agent: carrageenan; • Test Medicine: ethyl 11-deoxy-18α-glycyrrhetinate was dissolved in 1% CMC-Na to get the desired concentration; • Positive Control Medicine: indomethacin was dissolved in 1% CMC-Na to get the desired concentration;
# 50 rats were randomly divided into 5 groups of 10 rats in each group: the model group, positive control group (administering indomethacin 10 mg/kg), various doses of the test medicine groups (30, 60, 120 mg/kg). The animals in each group were administered continuously for 3 days. Before the last administration, the volumes of the left hind feet of the rats were measured by micropipette method. Then the animals were administered the test medicines or CMC-Na by gastric infusion. 1 hour later, freshly prepared carrageenan was injected subcutaneously into left hind feet of the rats according to the dosage of 0.05 ml/paw by using a 0.25 ml syringe and NO. 4 needle. The volume of left hind feet of the rats was measured by the method mentioned above at time points of 1, 3, 4, 5 and 7 hours after administration, each point 2 times, and the average values were calculated. The difference of these values between before and after inflammation was called swelling degree.
# Data was presented as x±s. T test of the average of two samples was used to compare the experimental data of each group. P<0.05 or P<0.01 was regarded to be statistically significant.
# [2] = tested on: D-Galn induced acute liver injury; test: D-Galn induced acute liver injury mouse model; assay type: in vivo, ICR male mice
# Description: 1. Comparison of therapeutic effects of ethyl 11-deoxy-18α-glycyrrhetinate and compound glycyrrhizin injection on ICR male mouse models of the D-Galn induced acute liver injury
# Methods: 60 ICR male mice were randomly divided into 6 groups of 10 mice in each group: the model group, compound glycyrrhizin injection group (60 mg/kg), compound glycyrrhizin gastric infusion group (240 mg /kg), high dose of ethyl 11-deoxy-18α-glycyrrhetinate group (240 mg/kg), middle dose of ethyl 11-deoxy-18α-glycyrrhetinate group (120 mg/kg), low dose of ethyl 11-deoxy-18α-glycyrrhetinate group (60 mg/kg). […] The mice in model group were administered equal amount of 0.5% CMC-Na by gastric infusion.
# [3] = tested on: BCG + LPS induced liver injury; test: BCG+LPS induced liver injury in mice; assay type: in vivo, Kunming mice; conditions: for ALT / AST: 7 days
# [4] = tested on: TAA induced acute liver injury; test: TAA induced acute liver injury mouse model; assay type: in vivo, ICR male mice; set-up: Average grade of hepatocyte necrosis: scale not given here; conditions: for Grade of hepatocyte necrosis 0 (number of mice) / Grade of hepatocyte necrosis 1 (number of mice) / Grade of hepatocyte necrosis 2 (number of mice) / Grade of hepatocyte necrosis 3 (number of mice) / Grade of hepatocyte necrosis 4 (number of mice): N=10
# Description: 50 ICR male mice were randomly divided into 5 groups of 10 mice in each group: the model group, diammonium glycyrrhizinate group (240 mg/kg), high dose of ethyl 11-deoxy-18α-glycyrrhetinate group (240 mg/kg), middle dose of ethyl 11-deoxy-18α-glycyrrhetinate group (120 mg/kg), and low dose of ethyl 11-deoxy-18α-glycyrrhetinate group (60 mg/kg). The mice in model group were administered equal amount of 0.5% CMC-Na by IG.
# [5] = tested on: acetaminophen induced liver injury; test: Acetaminophen induced liver injury in mice; assay type: in vivo; conditions: for ALT / AST: 10 days
# Description: Ethyl 11-deoxy-18α-glycyrrhetinate: provided by traditional Chinese medicine laboratory, R&D center of Jiangsu Chia Tai Tianqing Pharmaceutical Co., Ltd. Bifendate pills: produced by Beijing Union Pharmaceutical factory. Daily dosage of human is 45 mg, used as the positive control medicine. Acetaminophen: produced by Jinzhou biochemical pharmaceutical factory. All medicines were prepared to desired concentrations with physiological saline according to the requirement of experiment. AST, ALT Kit: product of Nanjing Jiancheng bioengineering research institute.
# 60 mice were randomly divided into 6 groups: the normal control group, Bifendate group (positive medicine group), model control group, various doses of ethyl 11-deoxy-18α-glycyrrhetinate groups (240, 120, 60 mg/kg). After the animals were adaptively fed for 3 days, animals in each group were administered the medicines by gastric infusion for 10 days (one time/day). Animals in the normal control group and model group were administered 0.2 ml/mouse of physiological saline. 6 hours after the last administration, animals in each group, except the animals in normal control group, were intraperitoneally injected 400 mg kg-1 acetaminophen. After 12 hours, blood was taken by orbital bleeding. Activities of alanine aminotransferase (ALT), aspartate aminotransferase (AST) were measured. And T test of groups was performed, see table 7;
# [6] = Table 1 experiment, 60 mg/kg IG, daily for 6 days
# [7] = Table 1 experiment, 120 mg/kg IG, daily for 6 days
# [8] = Table 1 experiment, 240 mg/kg IG, daily for 6 days
# [9] = Table 2 experiment, 60 mg/kg IG, 7 days
# [10] = Table 2 experiment, 120 mg/kg IG, 7 days
# [11] = Table 2 experiment, 240 mg/kg IG, 7 days
smiles,measurement,setting,value
"CCOC(=O)C1(C)CCC2(C)CCC3(C)C(=CCC4C5(C)CCC(O)C(C)(C)C5CCC43C)C2C1 (stereo not drawn) [Ethyl 11-deoxy-18α-glycyrrhetinate, ethyl 11-deoxy-18α-glycyrrhetinate]",Swelling degree of the feet after inflammation,"[1]; 30 mg/kg gastric infusion, 1 h",0.20 ± 0.10 mL
same,Swelling degree of the feet after inflammation,"[1]; 30 mg/kg gastric infusion, 3 h",0.27 ± 0.10 mL
same,Swelling degree of the feet after inflammation,"[1]; 30 mg/kg gastric infusion, 4 h",0.33 ± 0.11 mL
same,Swelling degree of the feet after inflammation,"[1]; 30 mg/kg gastric infusion, 5 h",0.39 ± 0.11 mL
same,Swelling degree of the feet after inflammation,"[1]; 30 mg/kg gastric infusion, 7 h",0.27 ± 0.12 mL
same,Swelling degree of the feet after inflammation,"[1]; 60 mg/kg gastric infusion, 1 h",0.17 ± 0.08 mL
same,Swelling degree of the feet after inflammation,"[1]; 60 mg/kg gastric infusion, 3 h",0.29 ± 0.15 mL
same,Swelling degree of the feet after inflammation,"[1]; 60 mg/kg gastric infusion, 4 h",0.37 ± 0.11 mL
same,Swelling degree of the feet after inflammation,"[1]; 60 mg/kg gastric infusion, 5 h",0.37 ± 0.07 mL
same,Swelling degree of the feet after inflammation,"[1]; 60 mg/kg gastric infusion, 7 h",0.29 ± 0.09 mL
same,Swelling degree of the feet after inflammation,"[1]; 120 mg/kg gastric infusion, 1 h",0.20 ± 0.05 mL
same,Swelling degree of the feet after inflammation,"[1]; 120 mg/kg gastric infusion, 3 h",0.32 ± 0.11 mL
same,Swelling degree of the feet after inflammation,"[1]; 120 mg/kg gastric infusion, 4 h",0.34 ± 0.09 mL
same,Swelling degree of the feet after inflammation,"[1]; 120 mg/kg gastric infusion, 5 h",0.42 ± 0.12 mL
same,Swelling degree of the feet after inflammation,"[1]; 120 mg/kg gastric infusion, 7 h",0.28 ± 0.09 mL
same,Inhibition of carrageenan-induced swelling of the rat feet (in words),"[1]; 30, 60, 120 mg/kg",began to inhibit the swelling of the rat feet induced by carrageenan after 4 hours
same,ALT,[2]; [6],833 ± 564 U/ml
same,ALT Inhibition %,[2]; [6],60%
same,AST,[2]; [6],777 ± 533 U/ml
same,AST Inhibition %,[2]; [6],60%
same,ALT,[2]; [7],474 ± 345 U/ml
same,ALT Inhibition %,[2]; [7],77%
same,AST,[2]; [7],414 ± 340 U/ml
same,AST Inhibition %,[2]; [7],79%
same,ALT,[2]; [8],311 ± 256 U/ml
same,ALT Inhibition %,[2]; [8],85%
same,AST,[2]; [8],317 ± 214 U/ml
same,AST Inhibition %,[2]; [8],84%
same,ALT,[2]; [9],767 ± 739 U/ml
same,ALT Inhibition %,[2]; [9],61%
same,AST,[2]; [9],353 ± 256 U/ml
same,AST Inhibition %,[2]; [9],69%
same,ALT,[2]; [10],452 ± 432 U/ml
same,ALT Inhibition %,[2]; [10],77%
same,AST,[2]; [10],292 ± 215 U/ml
same,AST Inhibition %,[2]; [10],74%
same,ALT,[2]; [11],372 ± 440 U/ml
same,ALT Inhibition %,[2]; [11],81%
same,AST,[2]; [11],266 ± 192 U/ml
same,AST Inhibition %,[2]; [11],77%
same,ALT,[3]; 60 mg/kg gastric infusion,105.3 ± 18.61 U/L
same,AST,[3]; 60 mg/kg gastric infusion,227.2 ± 59.7 U/L
same,ALT,[3]; 120 mg/kg gastric infusion,108.7 ± 20.0 U/L
same,AST,[3]; 120 mg/kg gastric infusion,190.1 ± 43.3 U/L
same,ALT,[3]; 240 mg/kg gastric infusion,89.4 ± 13.2 U/L
same,AST,[3]; 240 mg/kg gastric infusion,169.3 ± 38.4 U/L
same,Protection of liver and reduction of enzyme activity (in words),"[3]; mouse, in vivo",has good activity of protecting liver and reducing enzyme activity
same,ALT,[4]; 60 mg/kg IG,1177 ± 701 U/ml
same,ALT Inhibition %,[4]; 60 mg/kg IG,48%
same,AST,[4]; 60 mg/kg IG,940 ± 582 U/ml
same,AST Inhibition %,[4]; 60 mg/kg IG,45%
same,Average grade of hepatocyte necrosis,[4]; 60 mg/kg IG,1.4*
same,Grade of hepatocyte necrosis 0 (number of mice),[4]; 60 mg/kg IG,1
same,Grade of hepatocyte necrosis 1 (number of mice),[4]; 60 mg/kg IG,4
same,Grade of hepatocyte necrosis 2 (number of mice),[4]; 60 mg/kg IG,5
same,Grade of hepatocyte necrosis 3 (number of mice),[4]; 60 mg/kg IG,0
same,Grade of hepatocyte necrosis 4 (number of mice),[4]; 60 mg/kg IG,0
same,ALT,[4]; 120 mg/kg IG,1117 ± 707 U/ml
same,ALT Inhibition %,[4]; 120 mg/kg IG,51%
same,AST,[4]; 120 mg/kg IG,823 ± 530 U/ml
same,AST Inhibition %,[4]; 120 mg/kg IG,52%
same,Average grade of hepatocyte necrosis,[4]; 120 mg/kg IG,1.3**
same,Grade of hepatocyte necrosis 0 (number of mice),[4]; 120 mg/kg IG,1
same,Grade of hepatocyte necrosis 1 (number of mice),[4]; 120 mg/kg IG,5
same,Grade of hepatocyte necrosis 2 (number of mice),[4]; 120 mg/kg IG,4
same,Grade of hepatocyte necrosis 3 (number of mice),[4]; 120 mg/kg IG,0
same,Grade of hepatocyte necrosis 4 (number of mice),[4]; 120 mg/kg IG,0
same,ALT,[4]; 240 mg/kg IG,992 ± 558 U/ml
same,ALT Inhibition %,[4]; 240 mg/kg IG,56%
same,AST,[4]; 240 mg/kg IG,738 ± 258 U/ml
same,AST Inhibition %,[4]; 240 mg/kg IG,57%
same,Average grade of hepatocyte necrosis,[4]; 240 mg/kg IG,1.2**
same,Grade of hepatocyte necrosis 0 (number of mice),[4]; 240 mg/kg IG,1
same,Grade of hepatocyte necrosis 1 (number of mice),[4]; 240 mg/kg IG,6
same,Grade of hepatocyte necrosis 2 (number of mice),[4]; 240 mg/kg IG,3
same,Grade of hepatocyte necrosis 3 (number of mice),[4]; 240 mg/kg IG,0
same,Grade of hepatocyte necrosis 4 (number of mice),[4]; 240 mg/kg IG,0
same,ALT,[5]; 60 mg/kg gastric infusion,172.0 ± 39.8 U/L
same,AST,[5]; 60 mg/kg gastric infusion,203.5 ± 55.4 U/L
same,ALT,[5]; 120 mg/kg gastric infusion,133.3 ± 28.7 U/L
same,AST,[5]; 120 mg/kg gastric infusion,158.1 ± 46.9 U/L
same,ALT,[5]; 240 mg/kg gastric infusion,119.4 ± 15.2 U/L
same,AST,[5]; 240 mg/kg gastric infusion,122.3 ± 28.0 U/L
same,"Reduction of AST, ALT and protection against hepatocyte injury (in words)","[5]; mouse, in vivo","can reduce AST, ALT, and effectively protect against the acetaminophen induced hepatocyte injury"
